This assay concerns the target T1, CHK1 (Homo sapiens, UniProt O14757).
T1 construct: His; purchased Invitrogen
T1 sequence (O14757 1-476): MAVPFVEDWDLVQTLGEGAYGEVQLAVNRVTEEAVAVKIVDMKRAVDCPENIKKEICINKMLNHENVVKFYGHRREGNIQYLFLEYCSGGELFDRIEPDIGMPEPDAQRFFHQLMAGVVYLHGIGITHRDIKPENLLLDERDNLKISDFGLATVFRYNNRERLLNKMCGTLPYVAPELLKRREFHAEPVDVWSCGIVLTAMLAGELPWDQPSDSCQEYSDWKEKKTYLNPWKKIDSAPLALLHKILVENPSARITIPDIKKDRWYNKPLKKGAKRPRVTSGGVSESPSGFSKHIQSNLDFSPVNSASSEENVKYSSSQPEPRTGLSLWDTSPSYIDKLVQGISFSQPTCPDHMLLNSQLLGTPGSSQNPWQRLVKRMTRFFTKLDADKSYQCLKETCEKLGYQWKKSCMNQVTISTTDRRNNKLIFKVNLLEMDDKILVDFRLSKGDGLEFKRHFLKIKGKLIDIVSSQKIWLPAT
As to the kind of experiment: CHK1 Enzyme Assay (phosphorylation of Chktide peptide, 33P-ATP filter assay). It is filed as biochemical. The note with it: 12.5 nM His-CHK1, 0.01 mM ATP, 40 minutes at 30° C.; read-out: CHK1 Enzyme Activity (IC50 range). Here is the method:
Assays for the CHK1 kinase activity were carried out by monitoring the phosphorylation of a synthetic peptide Chktide with the amino acid sequence, […]. The assay mixture containing the inhibitor and CHK1 enzyme was mixed together in a microtiter plate in a final volume of 50 μl and incubated for 40 minutes at 30° C.
The assay mixture contained 0.01 mM unlabeled ATP, 0.5 μCi ^33P-γ-ATP, 14.8 μM Chktide, 0.1 mg/mL BSA, 50 mM Hepes-NaOH pH 7.5 and 12.5 nM His-CHK1 (Invitrogen) enzyme. The reaction was stopped by adding 50 μL of 50 mM phosphoric acid. 90 μL of the mixture was transferred to a pre-wetted 96-well multi-screen MAPHNOB filtration plate (Millipore) and filtered on a vacuum manifold. The filter plate was washed with 3 successive additions of 200 μl 50 mM phosphoric acid and then with 100 μL methanol. The filtration plate was dried for 10 min at 65° C., scintillant added and phosphorylated peptide quantified in a scintillation counter (Trilux, PerkinElmer).
As a reminder, the IC50 is the concentration that gives 50% inhibition. For the compound `Cc1[nH]c(=O)c(-c2cc3ccccc3[nH]2)cc1NC(=O)c1cnn(Cc2ccc(F)cc2)c1` [Example 32, 1-(4-Fluoro-benzyl)-1H-pyrazole-4-carboxylic acid [5-(1H-indol-2-yl)-2-methyl-6-oxo-1,6-dihydro-pyridin-3-yl]-amide], the IC50 is 100 to 500 nM.

Consider `CN1CCN(c2ccc3[nH]c(-c4cc(NC(=O)c5cnn(Cc6ccc(F)cc6)c5)c[nH]c4=O)cc3c2)CC1` [Example 114, 1-(4-Fluoro-benzyl)-1H-pyrazole-4-carboxylic acid {5-[5-(4-methyl-piperazin-1-yl)-1H-indol-2-yl]-6-oxo-1,6-dihydro-pyridin-3-yl}-amide], for which the IC50 is less than 100 nM.

As to `Cc1ccc(Cn2cc(NC(=O)c3c[nH]c(=O)c(-c4cc5ccccc5[nH]4)c3)cn2)cc1` [Example 5, 5-(1H-Indol-2-yl)-6-oxo-1,6-dihydro-pyridine-3-carboxylic acid[1-(4-methyl-benzyl)-1H-pyrazol-4-yl]-amide], the IC50 was in the range of 100 to 500 nM.

Turning to `O=C(Nc1c[nH]c(=O)c(-c2cc3cc(CN4CCC(F)(F)CC4)ccc3[nH]2)c1)c1cnn(Cc2ccccc2)c1` [Example 64, 1-Benzyl-1H-pyrazole-4-carboxylic acid {5-[5-(4,4-difluoro-piperidin-1-ylmethyl)-1H-indol-2-yl]-6-oxo-1,6-dihydro-pyridin-3-yl}-amide], the IC50 is less than 100 nM.

Regarding `CC1CN(Cc2ccc3[nH]c(-c4cc(NC(=O)c5cnn(Cc6ccccc6)c5)c[nH]c4=O)cc3c2)CC(C)O1` (stereo not drawn) [Example 69, 1-Benzyl-1H-pyrazole-4-carboxylic acid {5-[5-(2,6-dimethyl-morpholin-4-ylmethyl)-1H-indol-2-yl]-6-oxo-1,6-dihydro-pyridin-3-yl}-amide], the IC50 is less than 100 nM.

Regarding `CN(C)CCN(C)Cc1ccc2[nH]c(-c3cc(NC(=O)c4cnn(Cc5ccccc5)c4)c[nH]c3=O)cc2c1` [Example 170, 1-Benzyl-1H-pyrazole-4-carboxylic acid [5-(5-{1(2-dimethylamino-ethyl)-methyl-aminol-methyl}-1H-indol-2-yl)-6-oxo-1,6-dihydro-pyridin-3-yl]-amide], the 50% inhibitory concentration (IC50) is less than 100 nM.

In the case of `CC(C)c1ccc(Cn2cc(C(=O)Nc3c[nH]c(=O)c(-c4cc5cc(CN6CCC(F)CC6)ccc5[nH]4)c3)cn2)cc1` [Example 73, 1-(4-isopropylbenzyl)-1H-pyrazole-4-carboxylic acid {5-[5-(4-fluoropiperidin-1-ylmethyl)-1H-indol-2-yl)-6-oxo-1,6-dihydropyridin-3-yl}-amide], the IC50 was less than 100 nM.

In the case of `C[C@@H](c1ccccc1)n1cc(C(=O)Nc2c[nH]c(=O)c(-c3cc4cc(CN5CCCCC5)ccc4[nH]3)c2)cn1` [Example 162, 1-((S)-1-Phenyl-ethyl)-1H-pyrazole-4carboxylic acid [6-oxo-5-(5-piperidin-1-ylmethyl-1H-indol-2-yl)-1,6-dihydro-pyridin-3-yl]-amide], the IC50 is less than 100 nM.

As to `C[C@@H](c1ccccc1)n1cc(C(=O)Nc2c[nH]c(=O)c(-c3cc4cc(CN5CCC(F)CC5)ccc4[nH]3)c2)cn1` [Example 164, 1-((S)-1-Phenyl-ethyl)-1H-pyrazole-4-carboxylic acid {5-[5-(4-fluoro-piperidin-1-ylmethyl)-1H-indol-2-yl]-6-oxo-1,6-dihydro-pyridin-3-yl}-amide], the IC50 was less than 100 nM.

Take `CCN(CCO)Cc1ccc2[nH]c(-c3cc(NC(=O)c4cnn(Cc5ccccc5)c4)c[nH]c3=O)cc2c1` [Example 56, 1-Benzyl-1H-pyrazole-4-carboxylic acid [5-(5-{[ethyl-(2-hydroxy-ethyl)-amino]-methyl}-1H-indol-2-yl)-6-oxo-1,6-dihydro-pyridin-3-yl]-amide]: the half-maximal inhibitory concentration (IC50) is less than 100 nM.

With `CN1CCN(C(=O)c2ccc3[nH]c(-c4cc(C(=O)Nc5cnn(Cc6ccccc6)c5)c[nH]c4=O)cc3c2)CC1` [Example 15, 5-[5-(4-Methyl-piperazine-1-carbonyl)-1H-indol-2-yl]-6-oxo-1,6-dihydro-pyridine-3-carboxylic acid (1-benzyl-1H-pyrazol-4-yl)-amide], the IC50 is less than 100 nM.

Take `CC(c1ccccc1)n1cc(C(=O)Nc2c[nH]c(=O)c(-c3cc4ccccc4[nH]3)c2)cn1` (stereo not drawn) [Example 93, 1-(1-Phenylethyl)-1H-pyrazole-4-carboxylic acid [5-(1H-indol-2-yl)-6-oxo-1,6-dihydropyridin-3-yl]-amide]: the IC50 was less than 100 nM.

Consider `CC(c1ccc(F)cc1)n1cc(C(=O)Nc2c[nH]c(=O)c(-c3cc4cc(CN5CCCCC5)ccc4[nH]3)c2)cn1` (stereo not drawn) [Example 88, 1-[1-(4-Fluoro-phenyl)-ethyl]-1H-pyrazole-4-carboxylic acid [6-oxo-5-(5-piperidin-1-ylmethyl-1-H-indol-2-yl)-1,6-dihydro-pyridin-3-yl]-amide], for which the IC50 is less than 100 nM.

As to `CS(=O)(=O)CCNCc1ccc2[nH]c(-c3cc(NC(=O)c4cnn(Cc5ccccc5)c4)c[nH]c3=O)cc2c1` [Example 68], the IC50 was less than 100 nM.

In the case of `CCc1cccc(Cn2cc(C(=O)Nc3c[nH]c(=O)c(-c4cc5cc(OCCCN6CCCCC6)ccc5[nH]4)c3)cn2)c1` [Example 134, 1-(3-Ethyl-benzyl)-1H-pyrazole-4-carboxylic acid {6-oxo-5-[5-(3-piperidin-1-yl-propoxy)-1H-indol-2-yl]-1,6-dihydro-pyridin-3-yl}-amide], the IC50 was less than 100 nM.

As to `O=C(Nc1cnn(Cc2ccc(F)c(F)c2)c1)c1c[nH]c(=O)c(-c2cc3cc(CN4CCOCC4)ccc3[nH]2)c1` [Example 99, 5-(5-Morpholin-4-ylmethyl-1H-indol-2-yl)-6-oxo-1,6-dihydro-pyridine-3-carboxylic acid [1-(3,4-difluoro-benzyl)-1H-pyrazol-4-yl]-amide], the IC50 was less than 100 nM.

Turning to `CCc1cccc(Cn2cc(C(=O)Nc3c[nH]c(=O)c(-c4cc5cc(OCCN6CCCCC6)ccc5[nH]4)c3)cn2)c1` [Example 135, 1-(3-Ethyl-benzyl)-1H-pyrazole-4-carboxylic acid {6-oxo-5-[5-(2-piperidin-1-yl-ethoxy)-1H-indol-2-yl]-1,6-dihydro-pyridin-3-yl}-amide], the half-inhibitory concentration (IC50) was less than 100 nM.

As for `CCN(CC)CCOc1ccc2[nH]c(-c3cc(NC(=O)c4cnn(Cc5ccccc5)c4)c[nH]c3=O)cc2c1` [Example 141, 1-Benzyl-1H-pyrazole-4-carboxylic acid {5-[5-(2-diethylamino-ethoxy)-1H-indol-2-yl]-6-oxo-1,6-dihydro-pyridin-3-yl}-amide], the half-inhibitory concentration (IC50) was less than 100 nM.

`CC1CN(Cc2ccc3[nH]c(-c4cc(NC(=O)c5cnn(Cc6ccccc6)c5)c[nH]c4=O)cc3c2)CCN1C` (stereo not drawn) [Example 70, 1-Benzyl-1H-pyrazole-4-carboxylic acid {5-[5-(3,4-dimethyl-piperazin-1-ylmethyl)-1H-indol-2-yl]-6-oxo-1,6-dihydro-pyridin-3-yl}-amide]: the 50% inhibitory concentration (IC50) is less than 100 nM.

On to `O=C(Nc1c[nH]c(=O)c(-c2cc3cc(CN4CCOCC4)ccc3[nH]2)c1)c1cnn(Cc2ccc(Cl)cc2)c1` [Example 67, 1-(4-Chloro-benzyl)-1H-pyrazole-4-carboxylic acid [5-(5-morpholin-4-ylmethyl-1H-indol-2-yl)-6-oxo-1,6-dihydro-pyridin-3-yl]-amide], for which the IC50 is less than 100 nM.

On to `Cc1[nH]c(=O)c(-c2cc3ccccc3[nH]2)cc1C(=O)Nc1cnn(Cc2ccc(F)c(F)c2)c1` [Example 19, 5-(1H-Indol-2-yl)-2-methyl-6-oxo-1,6-dihydro-pyridine-3-carboxylic acid [1-(3,4-difluoro-benzyl)-1H-pyrazol-4-yl]-amide], for which the IC50 was 100 to 500 nM.

Source of the values: patent US9604975B2, “Indolyl-pyridone derivatives having checkpoint kinase 1 inhibitory activity” (Vernalis (R&D) Ltd., priority 2009, dated 2017).
